The text below walks through data of patent US6472166B1, “Method for determining the effects of a growth-altering agent on a microbial colony” (Wardlaw Partners LP, priority 2000, dated 2002).

What all share (assay type): cell-based
Experiment [1] has as its system E. coli. The experiment is described as follows: Microcolony growth imaging of E. coli on Kirby-Bauer type growth medium. The following applies: 2 μg/ml, two-hour incubation, E. coli microcolonies, FIG. 2D. The method, then:
(§1) FIGS. 2A-2D, 3A-3D, and 4A-4D show digital images of various microorganisms exposed to different growth-altering agents. Here again, the images contained in panels “A” and “B” of each FIGURE were taken immediately after inoculation, and the images contained in panels “C” and “D” of each FIGURE were taken after about two hours of incubation. None of the images in FIGS. 2A-2D, 3A-3D, and 4A-4D are enhanced by digital processing. The images contained in panels “B” and “D” of each FIGURES show regions of the growth medium that have been exposed to a growth-altering agent. The images contained in panels “A” and “C” of each FIGURE have not been exposed to a growth-altering agent and can be used as control reference areas.
The images contained in FIGS. 2A and 2B show regions of a Kirby-Bauer type growth medium immediately after inoculation with E. coli. The images contained in FIGS. 2C and 2D show the same regions after a two-hour incubation period. […] If it is desired to find the threshold of microbial sensitivity, such as is done to determine the minimum inhibitory concentration (MIC), then a series of separate regions each containing a certain concentration of the growth-altering agent may be used and the relative growth in each separate region evaluated. […]

The subject of experiment [2] is E. faecium. Briefly: Microcolony growth imaging of E. faecium on Kirby-Bauer type growth medium. The conditions noted are these: 2 μg/ml, two-hour incubation, E. faecium microcolonies, FIG. 4D. The method, then:
as §1
The images contained in FIGS. 4A and 4B show regions of a Kirby-Bauer type growth medium immediately after inoculation with E. faecium. The images contained in FIGS. 4C and 4D show the same regions after a two-hour incubation period.

Experiment [3] concerns E. faecalis. The experiment is described as follows: Microcolony growth imaging of E. faecalis on Kirby-Bauer type growth medium. The conditions noted are these: 2 μg/ml, two-hour incubation, E. faecalis microcolonies, FIG. 3D. The method, then:
as §1
The images contained in FIGS. 3A and 3B show regions of a Kirby-Bauer type growth medium immediately after inoculation with E. faecalis. The images contained in FIGS. 3C and 3D show the same regions after a two-hour incubation period.

Regarding `CO/N=C(\C(=O)N[C@@H]1C(=O)N2C(C(=O)O)=C(COC(C)=O)CS[C@H]12)c1csc(N)n1` [cefotaxime], in experiment [1], the “microcolony perimeter/area ratio characteristic” value is “increased perimeter/area ratio characteristic”.

In the case of `CN[C@H](CC(C)C)C(=O)N[C@H]1C(=O)N[C@@H](CC(N)=O)C(=O)N[C@H]2C(=O)N[C@H]3C(=O)N[C@H](C(=O)N[C@H](C(=O)O)c4cc(O)cc(O)c4-c4cc3ccc4O)[C@H](O)c3ccc(c(Cl)c3)Oc3cc2cc(c3O[C@@H]2O[C@H](CO)[C@@H](O)[C@H](O)[C@H]2O[C@H]2C[C@](C)(N)[C@H](O)[C@H](C)O2)Oc2ccc(cc2Cl)[C@H]1O` [vancomycin], the microcolony growth entry in experiment [2] was “show detectable growth”; in experiment [3], “do not appear to exhibit any growth”.
